Source: ChEMBL document CHEMBL5113393, “Discovery of 2-((2-methylbenzyl)thio)-6-oxo-4-(3,4,5-trimethoxyphenyl)-1,6-dihydropyrimidine-5-carbonitrile as a novel and effective bromodomain and extra-terminal (BET) inhibitor for the treatment of sepsis” (Eur J Med Chem, 2022)
Activity calls are given as the source filed them. The calls are words filed in the database; no cut-off is given here.

Experiments:
[1] = target: T1, Bromodomain-containing protein 4 (Homo sapiens, UniProt O60885); experiment: Inhibition of BRD4 BD1 (57 to 168 residues) (unknown origin) transfected in Escherichia coli (DE3) using FAM-labeled JQ-1 as fluorescent substrate at 50 uM incubated for 30 mins by competitive fluorescence polarization method relative to control
[2] = target: T1, Bromodomain-containing protein 4; experiment: Inhibition of BRD4 BD2 (352 to 457 residues) (unknown origin) transfected in Escherichia coli (DE3) using FAM-labeled JQ-1 as fluorescent substrate at 50 uM incubated for 30 mins by competitive fluorescence polarization method relative to control
[3] = target: T1, Bromodomain-containing protein 4; experiment: Inhibition of BRD4 BD2 (352 to 457 residues) (unknown origin) transfected in Escherichia coli (DE3) using FAM-labeled JQ-1 as fluorescent substrate at 5 uM incubated for 30 mins by competitive fluorescence polarization method relative to control
[4] = target: T1, Bromodomain-containing protein 4; experiment: Inhibition of BRD4 BD1 (unknown origin) using FAM-labeled JQ-1 as fluorescent substrate assessed as inhibition constant incubated for 30 mins by competitive fluorescence polarization method
[5] = tested on: RAW264.7; experiment: Antiinflammatory activity in mouse RAW264.7 cells assessed as inhibition of LPS-induced NO production at 5 uM preincubated for 2 hrs followed by LPS stimulation and measured after 22 hrs by Griess reagent-based assay relative to control; format: functional; conditions: time 24 hrs
[6] = tested on: RAW264.7; experiment: Antiinflammatory activity in mouse RAW264.7 cells assessed as inhibition of LPS-induced NO production at 10 uM preincubated for 2 hrs followed by LPS stimulation and measured after 22 hrs by Griess reagent-based assay relative to control; format: functional; conditions: time 24 hrs
[7] = target: T1, Bromodomain-containing protein 4; experiment: Inhibition of BRD4 BD1 (57 to 168 residues) (unknown origin) transfected in Escherichia coli (DE3) using FAM-labeled JQ-1 as fluorescent substrate at 100 uM incubated for 30 mins by competitive fluorescence polarization method relative to control
[8] = target: T1, Bromodomain-containing protein 4; experiment: Inhibition of BRD4 BD2 (352 to 457 residues) (unknown origin) transfected in Escherichia coli (DE3) using FAM-labeled JQ-1 as fluorescent substrate at 100 uM incubated for 30 mins by competitive fluorescence polarization method relative to control
[9] = target: T1, Bromodomain-containing protein 4; experiment: Inhibition of BRD4 BD1 (57 to 168 residues) (unknown origin) transfected in Escherichia coli (DE3) using FAM-labeled JQ-1 as fluorescent substrate at 5 uM incubated for 30 mins by competitive fluorescence polarization method relative to control
[10] = target: T1, Bromodomain-containing protein 4; experiment: Binding affinity to His-tagged biotinylated BRD4 BD1 (unknown origin) assessed as dissociation constant by biolayer interferometry analysis
[11] = target: T1, Bromodomain-containing protein 4; experiment: Binding affinity to His-tagged biotinylated BRD4 BD1 (unknown origin) assessed as binding constant (Kon) by biolayer interferometry analysis
[12] = target: T1, Bromodomain-containing protein 4; experiment: Binding affinity to His-tagged biotinylated BRD4 BD1 (unknown origin) assessed as dissociation rate constant by biolayer interferometry analysis
[13] = tested on: Mus musculus; experiment: Protection against LPS-induced sepsis in C57BL/6 mouse model assessed as reduction in hypothermia at 10 mg/kg, ip qd administered for 3 days followed by LPS stimulation for 12 hrs and measured every 1 hr by digital thermometer; format: functional, organism-based; conditions: time 84.0 hrs

| SMILES | Ki [4] [nM] | inhibition [7] [%] | inhibition [8] [%] | other results |
| --- | --- | --- | --- | --- |
| COc1ccccc1NS(=O)(=O)c1cc(-c2n[nH]c(=O)c3ccccc23)ccc1C |  |  |  | inhibition [1]: 19%; inhibition [2]: 21.7%; inhibition [3]: 1.26% |
| COc1cc(-c2nc(SCc3cc(C)cc(C)c3)[nH]c(=O)c2C#N)cc(OC)c1OC | 1480 |  |  | inhibition at 5 µM [5]: 69.3%; inhibition at 10 µM [6]: 92.1% |
| CNC(=O)c1cccc(-c2nc(SCc3ccccc3Cl)[nH]c(=O)c2C#N)c1 |  | 66.4 | 65.9 |  |
| COc1cc(-c2nc(SCc3ccccc3F)[nH]c(=O)c2C#N)cc(OC)c1OC | 870 |  |  | inhibition at 5 µM [5]: 33.7%; inhibition at 10 µM [6]: 94.1% |
| COc1cc(-c2nc(SCc3ccccc3Cl)[nH]c(=O)c2C#N)cc(O)c1OC | 1950 | 69.3 | 63.4 |  |
| COc1cc(-c2nc(SCc3cccc(C)c3C)[nH]c(=O)c2C#N)cc(OC)c1OC | 1730 |  |  | inhibition at 5 µM [5]: 51.8%; inhibition at 10 µM [6]: 78.2% |
| Cc1cccc(OCc2occc2C(=O)N(C)Cc2cc(O)nc3ccccc23)c1 |  |  |  | inhibition [1]: 11.3%; inhibition [9]: 3.59%; inhibition [2]: 15.1%; inhibition [3]: 4.71% |
| N#Cc1c(-c2ccc(OC(F)(F)F)cc2)nc(SCc2ccccc2Cl)[nH]c1=O |  | 45.8 | 17.1 |  |
| COc1ccc(-c2nc(SCc3ccccc3Cl)[nH]c(=O)c2C#N)cc1C |  | 53.1 | 55.1 |  |
| COc1cc(-c2nc(SCc3ccccc3Cl)[nH]c(=O)c2C#N)ccc1OC(F)F |  | 54.4 | 59.2 |  |
| COc1cc(-c2nc(SCc3ccccc3Cl)[nH]c(=O)c2C#N)cc(OC)c1OC | 1740 | 84.7 | 74.3 | Kd [10]: 756 nM; K [11]: 3.84 10^4/Ms; Kdiss [12]: 2.9 10^-2/s; inhibition at 5 µM [5]: 75.2%; inhibition at 10 µM [6]: 99.7% |
| COc1ccc(-c2nc(SCc3ccccc3Cl)[nH]c(=O)c2C#N)cc1OC | 3230 | 65.1 | 68.7 |  |
| COc1ccc(CNC(=O)C2CCCN(c3nc4c(-c5ccc(C)cc5)csc4c(=O)[nH]3)C2)cc1 (stereo not drawn) |  |  |  | inhibition [1]: 21.9%; inhibition [9]: 2.1%; inhibition [2]: 29.7%; inhibition [3]: 3.8% |
| N#Cc1c(O)nc(SCc2ccccc2Cl)nc1-c1ccccc1 | 12300 | 47 | 46.5 | inhibition [1]: 71.9%; inhibition [9]: 7.01%; inhibition [2]: 83.5%; inhibition [3]: 19.3%; Kd [10]: 184000 nM; K [11]: 7.28 10^2/Ms; Kdiss [12]: 1.34 10^-1/s |
| COc1cc(-c2nc(SCc3cccc(C)c3)[nH]c(=O)c2C#N)cc(OC)c1OC | 1250 |  |  | inhibition at 5 µM [5]: 14.9%; inhibition at 10 µM [6]: 75.5% |
| N#Cc1c(-c2ccc3c(c2)OCO3)nc(SCc2ccccc2Cl)[nH]c1=O |  | 45.3 | 44.3 |  |
| COc1ccc(-c2nc(SCc3ccccc3Cl)[nH]c(=O)c2C#N)cc1 |  | 44.1 | 18.8 |  |
| COc1ccc(-c2nc(SCc3ccccc3Cl)n(C)c(=O)c2C#N)cc1OC | 18300 |  |  | inhibition at 5 µM [5]: 5.19%; inhibition at 10 µM [6]: 14.9% |
| COc1cccc(-c2nc(SCc3ccccc3Cl)[nH]c(=O)c2C#N)c1 |  | 45.3 | 45.1 |  |
| COc1ccc(OC)c(-c2nc(SCc3ccccc3Cl)[nH]c(=O)c2C#N)c1 |  | 51.6 | 43 |  |

| SMILES | Ki [4] [nM] | inhibition [7] [%] | inhibition [8] [%] | other results |
| --- | --- | --- | --- | --- |
| COc1cc(-c2nc(SCc3ccc(C)cc3)[nH]c(=O)c2C#N)cc(OC)c1OC | 1380 |  |  | inhibition at 5 µM [5]: 65.3%; inhibition at 10 µM [6]: 87.4% |
| COc1ccccc1-c1nc(SCc2ccccc2Cl)[nH]c(=O)c1C#N |  | 44.3 | 47.5 |  |
| Oc1ccc(-c2[nH]c(-c3ccccc3O)nc2-c2ccccc2)cc1 |  |  |  | inhibition [1]: 53%; inhibition [9]: 11.8%; inhibition [2]: 17.2%; inhibition [3]: 3.96% |
| COc1cc(-c2nc(SCc3ccccc3Cl)[nH]c(=O)c2C#N)cc(Cl)c1OC |  | 59.7 | 59.6 |  |
| COc1ccc(-c2nc(SCCc3ccccc3Cl)[nH]c(=O)c2C#N)cc1OC | 7580 |  |  |  |
| Cc1sc2c(c1C)C(c1ccc(Cl)cc1)=N[C@@H](CC(=O)Nc1ccc(O)cc1)c1nnc(C)n1-2 [BIRABRESIB] |  |  |  | inhibition at 5 µM [5]: 93.4%; inhibition at 10 µM [6]: 99.9%; Activity [13]: Active |
| Cc1cc2nc(SCC(=O)N(C)c3cccc(Cl)c3)[nH]c(=O)c2[nH]1 |  |  |  | inhibition [1]: 14.7%; inhibition [9]: 4.63%; inhibition [2]: 17.2%; inhibition [3]: 3.96% |
| CCOc1ccc(-c2nc(SCc3ccccc3Cl)[nH]c(=O)c2C#N)cc1OCC |  | 56.8 | 55.9 |  |
| CCOc1ccc(-c2nc(SCc3ccccc3Cl)[nH]c(=O)c2C#N)cc1OC |  | 64.7 | 55.7 |  |
| COc1ccc(-c2nc(SCc3ccccc3Cl)ncc2C#N)cc1OC | 4930 |  |  |  |
| COc1cccc(-c2cc(=O)[nH]c(N3CCN(c4ccccc4)CC3)n2)c1 |  |  |  | inhibition [1]: 39%; inhibition [9]: 1.56%; inhibition [2]: 41.7%; inhibition [3]: 11% |
| COc1cccc(-c2nc(SCc3ccccc3Cl)[nH]c(=O)c2C#N)c1OC |  | 50.7 | 51.3 |  |
| N#Cc1c(-c2ccc3c(c2)OCCO3)nc(SCc2ccccc2Cl)[nH]c1=O |  | 55.5 | 53.8 |  |
| COc1cc(OC)cc(-c2nc(SCc3ccccc3Cl)[nH]c(=O)c2C#N)c1 |  | 40.3 | 47.2 |  |
| COc1cc(-c2nc(SCc3ccccc3C(F)(F)F)[nH]c(=O)c2C#N)cc(OC)c1OC | 1190 |  |  | inhibition at 5 µM [5]: 62.4%; inhibition at 10 µM [6]: 81% |
| CCOc1cc(-c2nc(SCc3ccccc3Cl)[nH]c(=O)c2C#N)ccc1OC |  | 65.3 | 62.4 |  |
| COc1cc(-c2nc(SCc3ccccc3[N+](=O)[O-])[nH]c(=O)c2C#N)cc(OC)c1OC | 790 |  |  | inhibition at 5 µM [5]: 29.3%; inhibition at 10 µM [6]: 32.4% |
| COc1ccc(-c2nc(SCc3ccccc3Cl)[nH]c(=O)c2C#N)c(OC)c1OC |  | 53.1 | 51.7 |  |
| COC(=O)c1cc(-c2nc(SCc3ccccc3Cl)[nH]c(=O)c2C#N)ccc1OC |  | 42.9 | 48 |  |
| COc1ccc(-c2nc(NCc3ccccc3)[nH]c(=O)c2C#N)cc1OC | 16300 |  |  |  |
